In PMC6515479, “An Investigation on Glucuronidation Metabolite Identification, Isozyme Contribution, and Species Differences of GL-V9 In Vitro and In Vivo” (Molecules, 2019):

Experiments:
Assay type in all cases: in vitro ADME
rUGT1A3 = target: T1, rUGT1A3 (Homo sapiens, UniProt P35503); test: UGT phenotyping of GL-V9 glucuronidation, rUGT1A3; conditions: GL-V9 0.5, 1, 5 μM, 37 °C, 1 h
T1 construct: purchased Corning (Woburn, MA, USA)
T1 sequence (P35503 29-534): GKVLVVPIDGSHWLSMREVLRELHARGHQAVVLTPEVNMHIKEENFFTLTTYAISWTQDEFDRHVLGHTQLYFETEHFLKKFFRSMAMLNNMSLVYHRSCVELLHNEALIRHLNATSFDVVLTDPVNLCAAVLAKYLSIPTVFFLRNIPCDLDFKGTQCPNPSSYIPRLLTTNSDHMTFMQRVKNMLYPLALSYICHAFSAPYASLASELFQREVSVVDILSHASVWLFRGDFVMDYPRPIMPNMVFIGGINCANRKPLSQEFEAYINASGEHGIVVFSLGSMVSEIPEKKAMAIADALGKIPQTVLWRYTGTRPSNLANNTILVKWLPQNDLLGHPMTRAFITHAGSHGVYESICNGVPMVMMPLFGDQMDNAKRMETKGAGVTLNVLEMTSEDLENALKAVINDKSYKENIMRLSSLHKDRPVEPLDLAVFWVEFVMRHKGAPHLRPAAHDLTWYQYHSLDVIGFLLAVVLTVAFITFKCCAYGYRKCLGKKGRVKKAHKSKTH
Method: (§1) The composition of the incubation system (200 μL) contained liver microsomes of different species (0.1 mg protein/mL), 5 mM saccharolactone (D-saccharic acid 1,4-lactone monohydrate), 10 mM MgCl2, alamethicin (50 μg/mg protein), Tris-HCl buffer (50 mM, pH 7.4) and GL-V9 (1 μM). After 5 min of preincubation at 37 °C, UDPGA (5 mM) was added to initiate the phase II reaction. Control incubation samples were performed without UDPGA or without substrates (GL-V9). The reaction was terminated by addition of ice-cold methanol (three volumes) after incubation for 1 h at 37 °C. Samples were vortexed, centrifuged at 21,500× g for 10 min and then stored at 4 °C until HPLC-UV-TripleTOF analysis. To confirm that these metabolites are conjugates resulting from glucuronidation reaction, enzymatic hydrolysis of samples was processed. β-glucuronidase (100 KU, Sigma) was added and the hydrolysis was performed overnight at 37 °C. The control samples were carried out without β-glucuronidase under the same condition.
(§2) Twelve human recombinant UGT isoforms (rUGT1A1, rUGT1A3, rUGT1A4, rUGT1A6, rUGT1A7, rUGT1A8, rUGT1A9, rUGT1A10, rUGT2B4, rUGT2B7, rUGT2B15, and rUGT2B17) were employed to identify the main UGT enzyme(s) responsible for glucuronidation of GL-V9 under mixture conditions as described in Section 4.3. […]

rUGT2B17 = target: T2, rUGT2B17 (Homo sapiens, UniProt O75795); test: UGT phenotyping of GL-V9 glucuronidation, rUGT2B17; conditions: GL-V9 0.5, 1, 5 μM, 37 °C, 1 h
T2 construct: purchased Corning (Woburn, MA, USA)
T2 sequence (O75795 24-530): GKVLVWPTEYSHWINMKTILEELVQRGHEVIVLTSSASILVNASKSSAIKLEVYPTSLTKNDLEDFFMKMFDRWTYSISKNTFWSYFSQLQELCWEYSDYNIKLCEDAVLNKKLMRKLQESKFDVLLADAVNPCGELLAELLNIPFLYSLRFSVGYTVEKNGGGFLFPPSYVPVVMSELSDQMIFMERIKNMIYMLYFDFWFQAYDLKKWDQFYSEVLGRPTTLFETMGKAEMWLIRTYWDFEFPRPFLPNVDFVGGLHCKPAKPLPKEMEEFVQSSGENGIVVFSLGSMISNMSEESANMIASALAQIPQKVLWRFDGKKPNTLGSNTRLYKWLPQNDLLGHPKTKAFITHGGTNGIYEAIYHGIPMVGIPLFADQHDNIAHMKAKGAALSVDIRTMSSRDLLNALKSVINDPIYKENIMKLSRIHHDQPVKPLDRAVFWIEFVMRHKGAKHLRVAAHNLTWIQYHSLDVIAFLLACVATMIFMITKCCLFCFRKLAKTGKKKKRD
Method: as §1, §2

[1] = Enzyme kinetics of GL-V9 glucuronidation in mouse liver microsomes (MiceLMs); conditions: mouse, liver microsomes, pH 7.4, formation of 5-O-glucuronide GL-V9, protein 0.2 mg/mL, mean ± SD, n = 3
Method: as §1
(§3) Enzyme kinetics experiments were carried out in triplicate among five different species, including monkey, beagle dog, rat, mouse, and human. The reaction system and operations are as same as described in Section 4.3. The solutions of GL-V9 were selected over a range of concentrations (0.05, 0.2, 0.5, 1, 2, 5, 10, 20 μM). […]

[2] = test system: mouse liver microsomes (MiceLMs); test: as above; conditions: formation of 5-O-glucuronide GL-V9, protein 0.2 mg/mL, mean ± SD, n = 3
Method: as §1, §3

rUGT2B15 = target: T3, rUGT2B15 (Homo sapiens, UniProt P54855); test: UGT phenotyping of GL-V9 glucuronidation, rUGT2B15; conditions: GL-V9 0.5, 1, 5 μM, 37 °C, 1 h
T3 construct: purchased Corning (Woburn, MA, USA)
T3 sequence (P54855 24-530): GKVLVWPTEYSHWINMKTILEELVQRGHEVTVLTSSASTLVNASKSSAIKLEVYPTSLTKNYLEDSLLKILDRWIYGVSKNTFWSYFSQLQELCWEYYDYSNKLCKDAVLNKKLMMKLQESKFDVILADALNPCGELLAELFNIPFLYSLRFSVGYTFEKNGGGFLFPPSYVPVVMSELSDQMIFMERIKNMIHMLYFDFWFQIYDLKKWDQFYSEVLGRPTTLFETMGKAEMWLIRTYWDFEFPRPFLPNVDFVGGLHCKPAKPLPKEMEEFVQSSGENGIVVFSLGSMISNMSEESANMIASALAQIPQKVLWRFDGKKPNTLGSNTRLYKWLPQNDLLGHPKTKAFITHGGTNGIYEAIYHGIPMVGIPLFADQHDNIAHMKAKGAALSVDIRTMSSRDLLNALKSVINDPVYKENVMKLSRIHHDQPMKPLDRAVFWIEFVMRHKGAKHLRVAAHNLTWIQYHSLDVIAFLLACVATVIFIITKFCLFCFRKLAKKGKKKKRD
Method: as §1, §2

Metabolism rate (glucuronidation) (rUGT1A3): too low to be biologically relevant
Catalytic activity in the production of 5-O-glucuronide GL-V9 (rUGT2B17): did not show apparent catalytic activity
Km at 1 h [1]: 20.1 ± 1.04 µM
Vmax [2]: 153.2 ± 10.44 pmol/min/mg
Catalytic activity in the production of 5-O-glucuronide GL-V9 (rUGT2B15): did not show apparent catalytic activity
Structure (SMILES): COc1c(OCCCCN2CCCC2)cc(O)c2c(=O)cc(-c3ccccc3)oc12 [GL-V9]
